Experimental data from patent publication US20260160663A1, “OBLIQUE LINE SCANNER SYSTEMS AND METHODS FOR HIGH THROUGHPUT SINGLE MOLECULE TRACKING IN LIVING CELLS” (EIKON THERAPEUTICS, INC., priority 2022, published 2026).

Tested on: Halo-PCNA U2OS cells
Experiment: Cell cycle block, phases assigned by PCNA-based machine learning model
Settings: 2 mM Thymidine (S-phase block) or RO-3306 (G2-M block) per FIG. 20B legend
Protocol: Time-lapse microscopy was conducted on Halo-PCNA labeled with 50 nM JFX650, to achieve near-saturating labeling, for 12 hours at 12 frames per hour (FIG. 21A). A machine learning model was then trained using both manually assigned cell stages and time-based progression resulting in both a G1, early S, mid S, late S, G2 and mitosis classifier as well as a regression prediction across the continuum of the cell cycle (FIG. 21B). The predicted cell cycle classification performed well as compared to manual annotation (FIG. 21C). Clear progression of individual cells through the cell cycle was observed when regression prediction was plotted across the time series (FIG. 21D). […] When cells in each cell phase were analyzed separately, it became apparent that the slow-moving population of PCNA was exclusively found in cell predicted to be in S-phase and that there was a marked decrease in the fast-moving population (FIG. 20E). Mean diffusion coefficient of PCNA was then measured for 4,081 individual cells to characterize heterogeneity across the cell population, which is described in large part by cell cycle (FIG. 20F).
Cell cycle as provided above can be automatically determined using an image (e.g., an image of JF549-labeled PCNA). […]

Row | SMILES | fraction of cells assigned to the respective cell phase
1 | O=C1NC(=NCc2cccs2)S/C1=C\c1ccc2ncccc2c1 [RO-3306] | expected enrichment
2 | Cc1cn([C@H]2C[C@H](O)[C@@H](CO)O2)c(=O)[nH]c1=O [thymidine] | expected enrichment
